Laboratory results taken from patent US12227495B2, “Herbicidal compounds” (SYNGENTA CROP PROTECTION AG, priority 2018, dated 2025).

Legend:
Format in all cases: in vivo
[1] = tested on: Amaranthus retoflexus (AMARE); assay: Post-emergence herbicide test, glasshouse, percentage damage; settings: 1000 g/ha, evaluated after 13 days
Procedure, shortened: (§1)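 Seeds sown in pots; cultured 1 day (pre-emergence) or 8 days (post-emergence) in a controlled glasshouse; then sprayed with the active in acetone/water 50:50 plus 0.5% Tween 20 at 500 g/ha unless noted; grown on 13 days; damage assessed and banded into five classes.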

[2] = tested on: Echinochloa crus-galli (ECHCG); assay: as above; settings: 1000 g/ha, evaluated after 13 days
Procedure, shortened: as §1

[3] = tested on: Ipomoea hederacea (IPOHE); assay: as above; settings: 1000 g/ha, evaluated after 13 days
Procedure, shortened: as §1

[4] = tested on: Lolium perenne (LOLPE); assay: as above; settings: 1000 g/ha, evaluated after 13 days
Procedure, shortened: as §1

[5] = tested on: Setaria faberi (SETFA); assay: as above; settings: 1000 g/ha, evaluated after 13 days
Procedure, shortened: as §1

[6] = tested on: Solanum nigrum (SOLNI); assay: as above; settings: 1000 g/ha, evaluated after 13 days
Procedure, shortened: as §1

[7] = tested on: Amaranthus retoflexus (AMARE); assay: Pre-emergence herbicide test, glasshouse, percentage damage; settings: rate 1000 g/ha, evaluated after 13 days
Procedure, shortened: as §1

[8] = tested on: Echinochloa crus-galli (ECHCG); assay: as above; settings: rate 1000 g/ha, evaluated after 13 days
Procedure, shortened: as §1

[9] = tested on: Ipomoea hederacea (IPOHE); assay: as above; settings: rate 1000 g/ha, evaluated after 13 days
Procedure, shortened: as §1

[10] = tested on: Lolium perenne (LOLPE); assay: as above; settings: rate 1000 g/ha, evaluated after 13 days
Procedure, shortened: as §1

[11] = tested on: Setaria faberi (SETFA); assay: as above; settings: rate 1000 g/ha, evaluated after 13 days
Procedure, shortened: as §1

[12] = tested on: Solanum nigrum (SOLNI); assay: as above; settings: rate 1000 g/ha, evaluated after 13 days
Procedure, shortened: as §1

| SMILES | percentage damage caused to the plant, AMARE [1] | percentage damage caused to the plant, ECHCG [2] | percentage damage caused to the plant, IPOHE [3] | percentage damage caused to the plant, LOLPE [4] | percentage damage caused to the plant, SETFA [5] | percentage damage caused to the plant, SOLNI [6] | Pre-emergence Test AMARE percentage damage (five point scale) [7] | Pre-emergence Test ECHCG percentage damage (five point scale) [8] | Pre-emergence Test IPOHE percentage damage (five point scale) [9] | Pre-emergence Test LOLPE percentage damage (five point scale) [10] | Pre-emergence Test SETFA percentage damage (five point scale) [11] | Pre-emergence Test SOLNI percentage damage (five point scale) [12] |
| --- | --- | --- | --- | --- | --- | --- | --- | --- | --- | --- | --- | --- |
| N#Cc1cc(C(F)(F)F)cnc1Oc1cccc(Cl)c1-c1cc(C(F)F)no1 [Compound A118] | 5 (5=81-100%) | 5 (5=81-100%) | 5 (5=81-100%) | 5 (5=81-100%) | 5 (5=81-100%) | 5 (5=81-100%) | 5 (5=81-100%) | 5 (5=81-100%) | 4 (4=61-80%) | 5 (5=81-100%) | 5 (5=81-100%) | 4 (4=61-80%) |
| FC(F)c1cc(-c2c(Cl)cccc2Oc2ccc(Br)cn2)on1 [Compound A119] | 5 (5=81-100%) | 4 (4=61-80%) | 5 (5=81-100%) | 5 (5=81-100%) | 5 (5=81-100%) | 5 (5=81-100%) | 5 (5=81-100%) | 5 (5=81-100%) | 4 (4=61-80%) | 5 (5=81-100%) | 5 (5=81-100%) | 4 (4=61-80%) |
| N#Cc1cccnc1Oc1cccc(Cl)c1-c1cc(C(F)F)no1 [Compound A120] | 5 (5=81-100%) | 4 (4=61-80%) | 4 (4=61-80%) | 3 (3=41-60%) | 5 (5=81-100%) | 5 (5=81-100%) | 5 (5=81-100%) | 5 (5=81-100%) | 3 (3=41-60%) | 2 (2=21-40%) | 5 (5=81-100%) | 4 (4=61-80%) |
| Fc1cc(Cl)cnc1Oc1ccccc1-n1ccc(C(F)(F)F)n1 [Compound A121] | 4 (4=61-80%) | 3 (3=41-60%) | 2 (2=21-40%) | 1 (1=0-20%) | 3 (3=41-60%) | 4 (4=61-80%) | 4 (4=61-80%) | 4 (4=61-80%) | 1 (1=0-20%) | 1 (1=0-20%) | 3 (3=41-60%) | 1 (1=0-20%) |
| Fc1cc(Cl)cnc1Oc1cccc(Cl)c1-n1cc(C(F)(F)F)cn1 [Compound A159] | 5 (5=81-100%) | 3 (3=41-60%) | 4 (4=61-80%) | 4 (4=61-80%) | 5 (5=81-100%) | 5 (5=81-100%) | 5 (5=81-100%) | 5 (5=81-100%) | 2 (2=21-40%) | 5 (5=81-100%) | 5 (5=81-100%) | 5 (5=81-100%) |
| N#Cc1cccc(Oc2ncc(F)cc2F)c1-c1cc(C(F)F)no1 [Compound A160] | 5 (5=81-100%) | 5 (5=81-100%) | 5 (5=81-100%) | 5 (5=81-100%) | 5 (5=81-100%) | 5 (5=81-100%) | 5 (5=81-100%) | 5 (5=81-100%) | 5 (5=81-100%) | 5 (5=81-100%) | 5 (5=81-100%) | 4 (4=61-80%) |
| N#Cc1cccc(Oc2ccc(Cl)cn2)c1-c1cc(C(F)F)no1 [Compound A161] | 5 (5=81-100%) | 5 (5=81-100%) | 5 (5=81-100%) | 5 (5=81-100%) | 5 (5=81-100%) | 5 (5=81-100%) | 5 (5=81-100%) | 5 (5=81-100%) | 5 (5=81-100%) | 5 (5=81-100%) | 5 (5=81-100%) | 4 (4=61-80%) |
| N#Cc1cccc(Oc2ncc(Cl)cc2F)c1-c1cc(C(F)F)no1 [Compound A162] | 5 (5=81-100%) | 4 (4=61-80%) | 5 (5=81-100%) | 5 (5=81-100%) | 5 (5=81-100%) | 5 (5=81-100%) | 5 (5=81-100%) | 5 (5=81-100%) | 5 (5=81-100%) | 5 (5=81-100%) | 5 (5=81-100%) | 4 (4=61-80%) |
